Test results reported in patent publication US20070032529A1, “Pyrazole compounds and their use as antidiabetes agents” (Japan Tobacco Inc., priority 2005, published 2007).
Structures can show the parent of a compound that is named as a salt.

Legend:
[1] = tested on: db/db mice; assay: Measuring blood plasma glucose concentration in db/db mice (hypoglycemic effect); assay type: in vivo; set-up: key: ++: compounds exhibiting statistically significant hypoglycemic effect at a dose of 10 mg/kg or less; +: compounds exhibiting not significant but obvious hypoglycemic effect at a dose of 10 mg/kg; conditions: for vivo (hypoglycemic effect in db/db mice): db/db mice fasted 4 h, oral administration, plasma glucose 1 and 3 hours after administration, dose 10 mg/kg or less, Dunnett test vs solvent; for vivo (hypoglycemic effect): db/db mice, blood plasma glucose, dose of 10 mg/kg or less
Experimental: 2. Exemplary Test (2) Method for Measuring Blood Plasma Glucose Concentration
Using db/db mice representing an obesity type of diabetic model were used to examine the effect of compound (1) of the present invention on glucose concentrations in plasma. Plasma glucose concentrations of the db/db mice (9-18 weeks old) were measured, and the mice were divided into groups each of 5 or 8 mice such that there would be no difference in the average value of plasma glucose concentrations. After fasting for four hours, the example compound or the solvent (0.5% methylcellulose) was administered orally to the db/db mice, and plasma glucose concentrations were measured 1 and 3 hours after administration. The analysis of the hypoglycemic effect of the example compound was performed through a statistical test at every hour between the group receiving the solvent and the groups of example compound (Dunnett test).

[2] = biological target: T1, recombinant human liver glycogen phosphorylase (Homo sapiens, UniProt P06737); assay: Measuring liver glycogen phosphorylase activity (forward reaction system, NADPH absorbance at 340 nm); assay type: biochemical
T1 construct: made in house; host or cells: Sf9 insect cells (crude homogenate, diluted, used as the enzyme solution)
T1 sequence (P06737 1-847): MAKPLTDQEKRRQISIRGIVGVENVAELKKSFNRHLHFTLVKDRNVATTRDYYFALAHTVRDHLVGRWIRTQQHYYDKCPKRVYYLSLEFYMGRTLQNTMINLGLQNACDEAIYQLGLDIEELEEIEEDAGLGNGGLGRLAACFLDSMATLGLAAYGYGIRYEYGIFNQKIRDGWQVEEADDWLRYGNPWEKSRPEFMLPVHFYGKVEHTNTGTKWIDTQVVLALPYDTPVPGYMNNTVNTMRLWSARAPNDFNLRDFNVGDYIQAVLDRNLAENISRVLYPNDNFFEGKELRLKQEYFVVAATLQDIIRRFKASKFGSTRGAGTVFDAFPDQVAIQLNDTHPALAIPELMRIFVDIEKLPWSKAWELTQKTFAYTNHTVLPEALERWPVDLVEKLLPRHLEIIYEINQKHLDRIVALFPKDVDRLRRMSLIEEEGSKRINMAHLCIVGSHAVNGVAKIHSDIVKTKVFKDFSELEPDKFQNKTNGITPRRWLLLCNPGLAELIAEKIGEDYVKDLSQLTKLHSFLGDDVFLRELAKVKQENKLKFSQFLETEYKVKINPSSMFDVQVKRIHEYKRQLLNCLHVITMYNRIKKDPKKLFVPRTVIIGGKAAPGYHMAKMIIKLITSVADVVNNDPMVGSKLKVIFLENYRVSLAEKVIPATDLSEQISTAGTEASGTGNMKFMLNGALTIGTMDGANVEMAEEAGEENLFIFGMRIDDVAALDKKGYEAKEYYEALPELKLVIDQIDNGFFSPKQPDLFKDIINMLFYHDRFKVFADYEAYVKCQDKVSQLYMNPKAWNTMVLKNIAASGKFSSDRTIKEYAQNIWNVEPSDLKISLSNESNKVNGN
Outline: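 Compounds in 1% DMSO; activity taken as blank-subtracted 340 nm absorbance change across 75 min at room temperature. Forward reaction: glucose-1-phosphate released from glycogen converted by coupling enzymes, yielding NADPH; enzyme from recombinant Sf9 homogenate, reaction containing glucose, pH 6.8. IC50 from two-point linear interpolation.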

[3] = enzyme inhibitory activity with respect to liver glycogen phosphorylase, class symbols
[4] = human liver glycogen phosphorylase, class symbol

SMILES	vivo (hypoglycemic effect in db/db mice) [1]	IC50 [2, 3] [µM]	other results
CCCN(Cc1ccc(OC)nc1)C(=O)c1cc(NC(=O)c2cc(F)c(F)cc2Cl)[nH]n1 [Example 1-116]	++	< 0.1	–
O=C(Nc1cc(C(=O)N(Cc2cccnc2)C2CCCCC2)n[nH]1)c1cc(F)c(F)cc1Cl [Example 1-91]	+	< 0.1	–
CCN(C(=O)c1cc(NC(=O)c2cc(F)c(F)cc2Cl)[nH]n1)c1ccccc1 [Example 3-11]	+	< 0.1	–
Cc1ccc(CNC(=O)c2cc(NC(=O)c3cc(F)c(F)cc3Cl)[nH]n2)cc1 [Example 1-69]	+	< 0.1	–
CCCCN(C(=O)c1cc(NC(=O)c2cc(F)c(F)cc2Cl)[nH]n1)C1CCOCC1 [Example 1-96]	+	< 0.1	–
O=C(NCc1ccc(OCC(F)(F)F)nc1)c1cc(NC(=O)c2cc(F)c(F)cc2Cl)[nH]n1 [Example 1-39]	+	< 0.1	–
CN(C)c1nc(Cl)ccc1CNC(=O)c1cc(NC(=O)c2cc(F)c(F)cc2Cl)[nH]n1 [Example 5-30]	+	< 0.1	–
O=C(Nc1cc(C(=O)N(Cc2ccccn2)C2CCCCC2)n[nH]1)c1cc(F)c(F)cc1Cl [Example 1-82]	+	< 0.1	–
CN(C(=O)c1cc(NC(=O)c2cc(F)c(F)cc2Cl)[nH]n1)c1ccc(-c2nc(=O)o[nH]2)cc1 [Example 6-12]	–	–	vivo (hypoglycemic effect) [1]: +; IC50 [2, 4]: < 0.1 µM
CCOC(=O)CN(C(=O)c1cc(NC(=O)c2cc(F)c(F)cc2Cl)[nH]n1)c1ccccc1 [Example 4-4]	+	< 0.1	–
O=C(Nc1cc(C(=O)N(Cc2ccccc2)c2ccccc2)n[nH]1)c1cc(F)c(F)cc1Cl [Example 4-9]	+	< 0.1	–
COc1cc(C)ncc1CNC(=O)c1cc(NC(=O)c2cc(F)c(F)cc2Cl)[nH]n1 [Example 2-6, 5-(2-chloro-4,5-difluoro-benzoylamino)-1H-pyrazole-3-carboxylic acid (4-methoxy-6-methyl-pyridin-3-ylmethyl)-amide]	++	< 0.1	–
COc1ccc(CNC(=O)c2cc(NC(=O)c3cc(F)c(F)cc3Cl)[nH]n2)cn1 [Example 5-16]	–	< 0.1	vivo (hypoglycemic effect in db/db mice) ([1]; 10 mg/kg): +
O=C(NCc1ccc(Cl)cc1)c1cc(NC(=O)c2cc(F)c(F)cc2Cl)[nH]n1 [Example 1-71]	+	< 0.1	–
COCCN(C(=O)c1cc(NC(=O)c2cc(F)c(F)cc2Cl)[nH]n1)c1ccc(C(=O)O)cc1 [Example 4-48]	++	< 0.1	–
Nc1ccc(CNC(=O)c2cc(NC(=O)c3cc(F)c(F)cc3Cl)[nH]n2)cc1 [Example 3-31]	+	< 0.1	–
O=C(NCc1ccc(F)nc1)c1cc(NC(=O)c2cc(F)c(F)cc2Cl)[nH]n1 [Example 2-13]	+	< 0.1	–
N#Cc1ccc(CNC(=O)c2cc(NC(=O)c3cc(F)c(F)cc3Cl)[nH]n2)cc1 [Example 6-33]	–	–	vivo (hypoglycemic effect) [1]: +; IC50 [2, 4]: < 0.1 µM
O=C(NCc1cccnc1)c1cc(NC(=O)c2cc(F)c(Cl)cc2Cl)[nH]n1 [Example 7-4]	–	–	vivo (hypoglycemic effect) [1]: ++; IC50 [2, 4]: < 0.1 µM
Cc1cccc(C)c1CNC(=O)c1cc(NC(=O)c2cc(F)c(F)cc2Cl)[nH]n1 [Example 1-40]	+	< 0.1	–
O=C(NCc1cscn1)c1cc(NC(=O)c2cc(F)c(F)cc2Cl)[nH]n1 [Example 1-38]	+	< 0.1	–
CC(C)Oc1ncccc1CNC(=O)c1cc(NC(=O)c2cc(F)c(F)cc2Cl)[nH]n1 [Example 1-24]	+	< 0.1	–

SMILES	vivo (hypoglycemic effect in db/db mice) [1]	IC50 [2, 3] [µM]	other results
CN(C)c1ccc(CNC(=O)c2cc(NC(=O)c3cc(F)c(F)cc3Cl)[nH]n2)cn1 [Example 5-27]	–	< 0.1	vivo (hypoglycemic effect in db/db mice) ([1]; 10 mg/kg): ++
CN(C(=O)c1cc(NC(=O)c2cc(F)c(F)cc2Cl)[nH]n1)c1ccccc1 [Example 3-4]	+	0.1 to 0.3	–
COc1ccc(CNC(=O)c2cc(NC(=O)c3cc(F)c(F)cc3Cl)[nH]n2)cn1.CS(=O)(=O)O [Example 5-15]	+	< 0.1	–
CN(C)C=Nc1cccc(CNC(=O)c2cc(NC(=O)c3cc(F)c(F)cc3Cl)[nH]n2)c1.Cl [Example 6-22]	–	–	vivo (hypoglycemic effect) [1]: +; IC50 [2, 4]: < 0.1 µM
O=C(NCc1c(Cl)cccc1Cl)c1cc(NC(=O)c2cc(F)c(F)cc2Cl)[nH]n1 [Example 1-134]	+	< 0.1	–
O=C(NCc1cccs1)c1cc(NC(=O)c2cc(F)c(F)cc2Cl)[nH]n1 [Example 3-26]	+	< 0.1	–
Cl.O=C(NCc1ccc(N2CCOCC2)nc1)c1cc(NC(=O)c2cc(F)c(F)cc2Cl)[nH]n1 [Example 5-25]	++	< 0.1	–
CCNC(=O)CN(C(=O)c1cc(NC(=O)c2cc(F)c(F)cc2Cl)[nH]n1)c1ccccc1 [Example 4-23]	+	< 0.1	–
O=C(NCCN1CCOCC1)c1cc(CNC(=O)c2cc(NC(=O)c3cc(F)c(F)cc3Cl)[nH]n2)ccn1 [Example 5-13]	+	< 0.1	–
O=C(NCc1nc2ccccc2[nH]1)c1cc(NC(=O)c2cc(F)c(F)cc2Cl)[nH]n1 [Example 1-42]	+	< 0.1	–
Cc1cccc(CNC(=O)c2cc(NC(=O)c3cc(F)c(F)cc3Cl)[nH]n2)n1 [Example 2-11]	+	< 0.1	–
CN(C(=O)c1cc(NC(=O)c2cc(F)c(F)cc2Cl)[nH]n1)C1CCCCC1 [Example 1-78]	+	< 0.1	–
CCCCN(C(=O)c1cc(NC(=O)c2cc(F)c(F)cc2Cl)[nH]n1)C1CCN(C(=O)C(=O)O)CC1 [Example 1-113]	++	< 0.1	–
CCCN(C(=O)c1cc(NC(=O)c2cc(F)c(F)cc2Cl)[nH]n1)C1CCN(C(=O)C(=O)O)CC1 [Example 1-123]	+	< 0.1	–
CC(OC(=O)OC1CCCCC1)OC(=O)c1ccc(N(C)C(=O)c2cc(NC(=O)c3cc(F)c(F)cc3Cl)[nH]n2)cc1 (stereo not shown) [Example 6-17]	–	–	vivo (hypoglycemic effect) [1]: +; inhibition at 0.1 µM ([2]; figure in brackets (100), read-out: IC50: % value given with (100)): 9.8%
COC(=O)c1ccc(CNC(=O)c2cc(NC(=O)c3cc(F)c(F)cc3Cl)[nH]n2)cc1 [Example 1-72]	+	< 0.1	–
O=C(NCc1cccc(F)c1F)c1cc(NC(=O)c2cc(F)c(F)cc2Cl)[nH]n1 [Example 1-18]	+	< 0.1	–
CS(=O)(=O)O.Cc1noc(C)c1CNC(=O)c1cc(NC(=O)c2cc(F)c(F)cc2Cl)[nH]n1 [Example 5-10]	+	–	–
Cl.O=C(NCc1ccc(-c2csnn2)cc1)c1cc(NC(=O)c2cc(F)c(F)cc2Cl)[nH]n1 [Example 5-31]	+	–	–
O=C(NCc1cccnc1)c1cc(NC(=O)c2cc(F)c(F)cc2Cl)[nH]n1 [Example 1-1-1, 5-(2-chloro-4,5-difluoro-benzoylamino)-1H-pyrazole-3-carboxylic acid (pyridin-3-ylmethyl)-amide dihydrochloride]	++	–	–
COc1cncc(OC)c1CNC(=O)c1cc(NC(=O)c2cc(F)c(F)cc2Cl)[nH]n1 [Example 5-17]	+	–	–
